# Laboratory results: ChEMBL document CHEMBL3352326, “Synthesis of 2,3-di- and 2,2,3-trisubstituted-3-methoxycarbonyl-γ-butyrolactones as potent antitumor agents” (Eur J Med Chem, 2015)
# Tests used:
# Format in all cases: functional
# KB = assay: Growth inhibition of human KB cells at 10 uM after 72 hrs by MTS assay; settings: read-out: GI
# [1] = Growth inhibition of human HCT116 cells at 10 uM after 72 hrs by MTS assay; settings: HCT-116, 72 h, read-out: GI
# MCF7 = assay: Growth inhibition of human MCF7 cells at 10 uM after 72 hrs by MTS assay; settings: MCF7, 72 h, read-out: GI
# [2] = Growth inhibition of human HL60 cells at 10 uM after 72 hrs by MTS assay; settings: HL-60, 72 h, read-out: GI
SMILES,inhibition of growth at 10 µM (KB),inhibition of growth at 10 µM [1],inhibition of growth at 10 µM (MCF7),inhibition of growth at 10 µM [2]
COC(=O)C1(Cc2ccc(OC)cc2)CC(=O)OC1c1ccc(C(F)(F)F)cc1 (stereo not given),0%,0%,4%,2%
COC(=O)C1(Cc2cc(OC)c(OC)c(OC)c2)CC(=O)OC1c1ccccc1 (stereo not given),0%,16%,1%,7%
COC(=O)C1(Cc2ccc(OC)cc2)CC(=O)OC1c1ccccc1 (stereo not given),19%,4%,0%,15%
COC(=O)C1(Cc2ccc(OC)cc2)CC(=O)OC1c1cc(OC)c(OC)c(OC)c1 (stereo not given),16%,24%,27%,32%
COC(=O)C1(Cc2ccccc2)CC(=O)OC12CCCCC2 (stereo not given),7%,0%,1%,4%
COC(=O)c1ccc(CC2(C(=O)OC)CC(=O)OC2c2ccccc2)cc1 (stereo not given),12%,0%,0%,19%
COC(=O)C1(Cc2ccccc2)CC(=O)OC1c1cc(OC)c(OC)c(OC)c1 (stereo not given),2%,7%,17%,27%
COC(=O)C1(Cc2ccccc2C(F)(F)F)CC(=O)OC1c1ccccc1 (stereo not given),42%,25%,35%,28%
COC(=O)C1(Cc2cccc(OC)c2)CC(=O)OC1(C)c1ccccc1 (stereo not given),5%,14%,16%,30%
COC(=O)C1(Cc2ccc(OC)cc2)CC(=O)OC1(C)c1cc(OC)c(OC)c(OC)c1 (stereo not given),0%,8%,7%,24%
COC(=O)[C@]1(Cc2ccc(OC)cc2)CC(=O)O[C@]1(C)c1ccccc1,15%,0%,0%,24%
COC(=O)C1(Cc2ccc(C(F)(F)F)cc2)CC(=O)OC1(C)c1ccccc1 (stereo not given),15%,25%,19%,28%
COC(=O)C1(Cc2cccc(OC)c2)CC(=O)OC1c1ccccc1 (stereo not given),0%,14%,12%,37%
COC(=O)C1(Cc2ccccc2)CC(=O)OC1(C)c1ccccc1 (stereo not given),6%,9%,13%,22%
COC(=O)C1(Cc2ccc(C(F)(F)F)cc2)CC(=O)OC1c1ccccc1 (stereo not given),4%,4%,0%,4%
CCCCCCC1OC(=O)CC1(Cc1ccc(OC)cc1)C(=O)OC (stereo not given),13%,12%,28%,8%
COC(=O)c1ccc(CC2(C(=O)OC)CC(=O)OC2(C)c2ccccc2)cc1 (stereo not given),22%,44%,35%,43%
COC(=O)C1(Cc2ccc(OC)cc2)CC(=O)OC1c1ccco1 (stereo not given),32%,0%,0%,29%

SMILES,inhibition of growth at 10 µM (KB),inhibition of growth at 10 µM [1],inhibition of growth at 10 µM (MCF7),inhibition of growth at 10 µM [2]
COC(=O)C1(Cc2ccccc2)CC(=O)OC1(C)c1cc(OC)c(OC)c(OC)c1 (stereo not given),0%,0%,2%,7%
COC(=O)C1(Cc2ccccc2)CC(=O)OC1c1ccccc1 (stereo not given),18%,0%,0%,22%
COC(=O)C1(Cc2ccc3c(c2)OCO3)CC(=O)OC1c1cc(OC)c(OC)c(OC)c1 (stereo not given),0%,22%,8%,10%
COC(=O)C1(Cc2ccc3c(c2)OCO3)CC(=O)OC1c1ccccc1 (stereo not given),0%,18%,11%,18%
COC(=O)C1(Cc2cccc(C(F)(F)F)c2)CC(=O)OC1c1ccccc1 (stereo not given),39%,14%,11%,34%
COC(=O)C1(Cc2ccccc2OC)CC(=O)OC1c1ccccc1 (stereo not given),7%,23%,18%,42%
COC(=O)C1(Cc2ccc(OC)cc2)CC(=O)OC1c1ccc(F)cc1 (stereo not given),33%,0%,4%,37%
COC(=O)C1(Cc2cccc(C(F)(F)F)c2)CC(=O)OC1(C)c1ccccc1 (stereo not given),21%,22%,20%,21%
CCC1(c2ccccc2)OC(=O)CC1(Cc1ccccc1)C(=O)OC (stereo not given),22%,25%,12%,17%
COC(=O)C1(Cc2cc(OC)c(OC)c(OC)c2)CC(=O)OC1c1cc(OC)c(OC)c(OC)c1 (stereo not given),0%,13%,3%,0%
COC(=O)C1(Cc2ccc(OC)cc2)CC(=O)OC1(c1ccccc1)C(F)(F)F (stereo not given),56%,20%,8%,64%
COC(=O)C1(Cc2ccc(OC)cc2)CC(=O)OC1(C)c1cccc(C(F)(F)F)c1 (stereo not given),38%,30%,46%,52%
CCC1(c2ccccc2)OC(=O)CC1(Cc1ccc(OC)cc1)C(=O)OC (stereo not given),11%,28%,21%,30%
COC(=O)C1(Cc2ccccc2C(F)(F)F)CC(=O)OC1(C)c1ccccc1 (stereo not given),0%,18%,6%,0%
COC(=O)C1(Cc2ccccc2)CC(=O)OC1(C)c1cccc(C(F)(F)F)c1 (stereo not given),34%,14%,14%,20%
COC(=O)C1(Cc2cccc(OC)c2)CC(=O)OC1c1cc(OC)c(OC)c(OC)c1 (stereo not given),0%,20%,13%,10%
COC(=O)C1(Cc2ccc(OC)cc2)CC(=O)OC1c1ccccc1C(F)(F)F (stereo not given),31%,0%,0%,23%
